Literature values in patent publication US20130230587A1, “SUSTAINED RELEASE COMPOSITIONS” (Rubicon Research Private Limited, priority 2010, published 2013).

For COc1ccc2c(c1)[C@]13CCCC[C@@H]1[C@H](C2)N(C)CC3 [Dextromethorphan], the “Time to peak plasma concentrations” value (absorbed from the gastrointestinal tract) is given as “approximately 2.5 hours” and the Plasma elimination half-life (in vivo) is given as 1.2 to 3.9 h.
